Laboratory results: ChEMBL document CHEMBL1152277, “Lead optimization of 4-acetylamino-2-(3,5-dimethylpyrazol-1-yl)-6-pyridylpyrimidines as A2A adenosine receptor antagonists for the treatment of Parkinson's disease” (J Med Chem, 2008)
In brackets after ≈: the same amount, converted by molar mass.

Experiments:
[1] = biological target: T1, Adenosine receptor A1 (Homo sapiens, UniProt P30542); experiment: Displacement of [3H]DPCPX from human adenosine A1 receptor expressed in HEK293 cells; assay type: cell-based
T1 sequence (P30542 whole entry): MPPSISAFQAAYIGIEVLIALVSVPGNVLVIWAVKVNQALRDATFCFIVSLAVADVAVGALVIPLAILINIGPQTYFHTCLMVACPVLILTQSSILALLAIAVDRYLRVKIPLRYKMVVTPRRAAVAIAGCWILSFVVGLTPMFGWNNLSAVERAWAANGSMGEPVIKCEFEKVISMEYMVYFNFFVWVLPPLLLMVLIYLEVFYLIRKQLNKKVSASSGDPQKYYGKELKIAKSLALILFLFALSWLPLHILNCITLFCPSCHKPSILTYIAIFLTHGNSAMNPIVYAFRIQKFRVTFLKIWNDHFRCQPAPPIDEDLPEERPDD

[2] = species on record: Homo sapiens; experiment: Selectivity ratio of Ki for human adenosine A1 receptor to Ki for human adenosine A2A receptor
[3] = Metabolic stability in human liver microsomes assessed as intrinsic clearance by LC-MS/MS analysis; assay type: ADME, Microsome
[4] = Metabolic stability in rat liver microsomes assessed as intrinsic clearance by LC-MS/MS analysis; assay type: ADME, Microsome
[5] = Aqueous solubility in phosphate-buffered saline at pH 7.4; assay type: physicochemical
[6] = species on record: Rattus norvegicus; experiment: Inhibition of haloperidol-induced catalepsy in rat assessed as minimal effective dose; assay type: functional; conditions: read-out: MED
[7] = Plasma concentration in rat at 10 mg/kg, po after 2 hrs; assay type: ADME, organism-based; design: dose 10 mg/kg, route oral
[8] = Drug concentration in rat brain at 10 mg/kg, po after 2 hrs; assay type: ADME, organism-based; design: dose 10 mg/kg, route oral; conditions: read-out: Drug uptake
[9] = biological target: Adenosine receptor A2a (Rattus norvegicus, UniProt P30543); experiment: Displacement of [3H][…] from rat adenosine A2A receptor expressed in CHO cells; assay type: cell-based
Chain of Adenosine receptor A2a (Rattus norvegicus, UniProt P30543) (P30543 whole entry): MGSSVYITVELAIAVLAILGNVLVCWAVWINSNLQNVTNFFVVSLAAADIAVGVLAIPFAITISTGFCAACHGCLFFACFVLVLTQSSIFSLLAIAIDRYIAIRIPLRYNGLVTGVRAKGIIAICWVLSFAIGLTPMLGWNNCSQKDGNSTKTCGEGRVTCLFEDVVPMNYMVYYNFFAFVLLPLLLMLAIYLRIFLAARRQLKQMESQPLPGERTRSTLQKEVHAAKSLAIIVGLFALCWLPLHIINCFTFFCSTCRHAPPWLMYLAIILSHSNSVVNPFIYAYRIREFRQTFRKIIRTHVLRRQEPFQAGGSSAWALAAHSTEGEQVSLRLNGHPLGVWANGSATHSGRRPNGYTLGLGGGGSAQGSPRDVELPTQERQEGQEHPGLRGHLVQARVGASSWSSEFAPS

[10] = test system: Rattus norvegicus; experiment: Inhibition of haloperidol-induced catalepsy in rat at 30 mg/kg, po after 2 hrs; assay type: functional
[11] = biological target: T2, Adenosine receptor A2a (Homo sapiens, UniProt P29274); experiment: Antagonist activity at human adenosine A2A receptor expressed in CHO cells assessed as inhibition of CGS-21680-induced cAMP production; assay type: functional, cell-based
T2 sequence (P29274 whole entry): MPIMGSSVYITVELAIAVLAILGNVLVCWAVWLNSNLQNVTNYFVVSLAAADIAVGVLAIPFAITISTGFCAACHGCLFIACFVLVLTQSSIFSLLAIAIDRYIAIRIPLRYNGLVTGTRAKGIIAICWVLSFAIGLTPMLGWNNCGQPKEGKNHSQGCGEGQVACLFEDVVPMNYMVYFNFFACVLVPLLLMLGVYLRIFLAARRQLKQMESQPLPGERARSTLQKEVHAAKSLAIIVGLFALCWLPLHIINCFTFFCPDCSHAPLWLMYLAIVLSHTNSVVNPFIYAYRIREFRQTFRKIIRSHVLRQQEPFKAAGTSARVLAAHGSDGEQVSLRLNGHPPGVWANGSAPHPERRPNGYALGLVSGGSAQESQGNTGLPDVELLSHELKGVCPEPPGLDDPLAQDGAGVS

[12] = biological target: T2, Adenosine receptor A2a; experiment: Displacement of [3H][…] from human adenosine A2A receptor expressed in HEK293 cells; assay type: cell-based
[13] = Plasma concentration in rat at 30 mg/kg, po after 2 hrs; assay type: ADME, organism-based; design: dose 30 mg/kg, route oral
[14] = Drug concentration in rat brain at 30 mg/kg, po after 2 hrs; assay type: ADME, organism-based; design: dose 30 mg/kg, route oral; conditions: read-out: Drug uptake
[15] = biological target: Cytochrome P450 3A4 (Homo sapiens, UniProt P08684)
Chain of Cytochrome P450 3A4 (P08684 whole entry): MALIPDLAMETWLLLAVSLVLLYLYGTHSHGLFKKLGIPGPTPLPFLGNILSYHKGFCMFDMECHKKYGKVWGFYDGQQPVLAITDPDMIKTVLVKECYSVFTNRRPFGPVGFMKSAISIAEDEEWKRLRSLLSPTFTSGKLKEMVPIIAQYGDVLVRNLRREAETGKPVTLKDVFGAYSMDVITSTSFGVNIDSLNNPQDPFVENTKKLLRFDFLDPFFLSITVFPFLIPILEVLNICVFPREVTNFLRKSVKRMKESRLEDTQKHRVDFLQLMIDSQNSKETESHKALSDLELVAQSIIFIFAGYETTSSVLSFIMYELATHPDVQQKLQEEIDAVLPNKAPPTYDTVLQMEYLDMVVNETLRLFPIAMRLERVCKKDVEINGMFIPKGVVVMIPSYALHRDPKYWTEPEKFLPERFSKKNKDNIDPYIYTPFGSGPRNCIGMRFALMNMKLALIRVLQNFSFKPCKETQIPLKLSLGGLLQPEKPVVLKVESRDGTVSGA
Description: Inhibition of CYP3A4 in human liver microsomes by LC-MS/MS analysis

Which results are given for `CC(=O)Nc1cc(-c2cccc(N3CCC(O)CC3)n2)nc(-n2nc(C)cc2C)n1`?
Ki [1]: 470 nM; Ratio Ki [2]: 247; CLint scaled [3]: 43 mL/min/kg; CLint scaled [4]: 230 mL/min/kg; solubility [5]: 200 µg/mL (≈ 491 µM); minimal effective dose [6]: 30 mg/kg; concentration at 2 h [7]: 16 ng/mL; concentration at 2 h [8]: 9 ng/g; Ki [9]: 10 nM; inhibition in vivo at 30 mg/kg [10]: 90%; IC50 [11]: 22 nM; Ki [12]: 1.9 nM; concentration at 2 h [13]: 180 ng/mL; concentration at 2 h [14]: 91 ng/g; IC50 [15]: > 20000 nM
